From patent US20020012979A1, “VITAMIN C PRODUCTION IN MICROORGANISMS AND PLANTS” (priority 1998, published 2002) come the findings set out here.

The experiment has as its system strain NA45-3 (ATCC 209681). The experiment in a line: Effect of magnesium on AA production from substrates by strain NA45-3. The conditions noted are these: 24 hours; for conversion to AA, effect of magnesium in the resuspension buffer: NA45-3 grown Mg-limited, substrate 20 g/L. It is filed as cell-based, Prototheca moriformis.

`O=C[C@@H](O)[C@@H](O)[C@H](O)[C@H](O)CO` [D-mannose]: the “conversion to AA, effect of magnesium in the resuspension buffer” value was “unaffected”.
In the case of `O=C1O[C@H]([C@@H](O)CO)[C@@H](O)[C@@H]1O` [L-galactono-γ-lactone], the “conversion to AA, effect of magnesium in the resuspension buffer” value is on record as “unaffected”. Besides, where the note is “NA45-3, substrate 20 g/L, regardless of magnesium in resuspension broth”, the “AA accumulation by cells grown under magnesium-sufficient conditions” value is “enhanced”.
